Legend:
C6 = experiment: Impedance-based TCRP of PDGFR addicted C6 glioma cells; assay type: cell-based, rat; conditions: C6; increasing concentrations
Method: (§4) The cell index (CI) was normalized at time of compound addition.
Kinase inhibitors including PDGFR inhibitors at different concentrations in DMSO were added into wells following the incubation period. The cell status was monitored prior to and after the compound addition using xCelligence system (Roche applied sciences). […] The Cell index was normalized against the cell index values at a time point just before compound addition.
IC50 of the PDGFR inhibitor can be derived from the CI versus the corresponding log concentration of the inhibitor.

Colo-205 = experiment: Impedance-based TCRP of Colo-205 cells, b-Raf (V600E); assay type: cell-based, human; conditions: increasing concentrations
Method: (A) The impedance-based time-dependent cellular profiles (TCRPs) of colo205 in response to b-Raf inhibitor on xCelligence system (Roche/ACEA). […] The cell index (CI) was normalized at time of the compound addition. At the indicated time point of treatment (arrow), increasing concentrations of b-Raf inhibitor (from 0 to 10 uM) were added to the cells and the cell response was monitored. […] (B) IC50 of b-Raf derived from impedance-based TCRP.
as §4
(§5) Kinase inhibitors including b-Raf inhibitors at different concentrations in DMSO were added into wells following the incubation period. The cell status was monitored prior to and after the compound addition using xCelligence system (Roche applied sciences). […] The Cell index was normalized against the cell index values at a time point just before compound addition.

H1993 = experiment: Impedance-based TCRP of Met addicted H1993 cells (xCelligence); assay type: cell-based, human; conditions: H1993; increasing concentrations
Method: Cells were treated with ACEA348 (0-10 uM) for 30 min.
as §4
The time-dependent cell response profiles (TCRP) were monitored prior to and after the compound addition using the xCelligence system (ACEA Biosciences/Roche applied sciences).
The Cell index was normalized against the cell index values at a time point just before compound addition. […] EC50 and IC50 of the Met inhibitor can be derived from the CI versus the corresponding log concentration of the inhibitor.

SK-MEL-28 = experiment: Impedance-based TCRP of SK-MEL-28, b-Raf (V600E) addicted melanoma cells; assay type: cell-based, human; conditions: SK-MEL-28; increasing concentrations
Method: (A) The impedance-based time-dependent cellular profiles (TCRPs) of SK-MEL28 in response to b-Raf inhibitor on xCelligence system (Roche/ACEA). […] The cell index (CI) was normalized at time of the compound addition. At the indicated time point of treatment (arrow), increasing concentrations of b-Raf inhibitor (from 0 to 10 uM) were added to the cells and the cell response was monitored. […] (B) EC50 of b-Raf derived from impedance-based TCRP.
as §4
Cell lines. […] The time-dependent cell response profiles (TCRP) were monitored prior to and after the compound addition using the xCelligence system (ACEA Biosciences/Roche applied sciences).
as §5

SH-SY5Y = experiment: Impedance-based TCRP of SH-SY5Y cells, mutant ALK (F1174L); assay type: cell-based, human; conditions: 10 uM
Excerpt: The cell index (CI) was normalized at time of compound addition. […] DMSO was served as solvent control.
The cell index was normalized at time of compound addition. DMSO at the same dose was served as solvent control.
as §4

AKT phosphorylation = experiment: Western analysis of PI3K downstream signal in 10T1/2 tva-H1047R and 10T1/2 tva; assay type: cell-based, mouse; conditions: 10 uM; treated for 2 hours; serum starved 5 hours
Excerpt: Cells were lysed and subject to Western analyses. […] Equal intensity of GAPDH bands indicated equal protein loading.

A549 = experiment: Impedance-based TCRP of A549 cells (wild-type p110α) to PI3K inhibitor; assay type: cell-based, human; conditions: A549 expressing wild-type p110α; serum starved 5 hour
Method: (§1) Cells were serum starved for 5 hour. The cell index was normalized at time of compound addition. At the indicated time point of treatment, increasing concentrations of PI103 (0-10 uM) was added to the cells and the cell responses were monitored.
(§2) Cell lines. A mouse fibroblast 10T1/2 expressing the cell-surface receptor TVA, which is specific for subgroup-A avian retroviruses was used. The cells were transformed by infection with human p110α (H1047R)-expressing avian retrovirus and are referred to as 10T1/2 tva-H1047R. A549 is a human lung cancer cell line expressing wild-type p110α. T47D and BT20 are human breast cancer cell lines expressing mutant p110α (T47D) and p110α (P539R/H1047R), respectively.
(§3) To test if the characteristic TCRP is specific to PI3K inhibition, we also test the cell responses in several other cell lines (FIG. 35). […] Such characteristic TCRP could be used for identifying or screening unknown biologically active agents which may act as PI3K inhibitors.

10T1/2 tva-H1047R = experiment: Impedance-based TCRP of 10T1/2 tva-H1047R cells expressing human p110α (H1047R); assay type: cell-based, mouse
Method: as §4
A mouse fibroblast 10T1/2 expressing the cell-surface receptor TVA, which is specific for subgroup-A avian retroviruses was used. […] A549 is a human lung cancer cell line expressing wild-type p110α. T47D and BT20 are human breast cancer cell lines expressing mutant p110α (T47D) and p110α (P539R/H1047R), respectively.
(§6) Then the normal growth medium (10% FBS) was exchanged with medium containing 0% FBS. The cells were incubated for additional 5 hours before compound treatment. A PI3K inhibitor (PI103) at different concentrations in DMSO was added into wells following the incubation period. The cell status was monitored prior to and after the compound addition using xCelligence system (Roche applied sciences). […] Cell index of the cells treated with solvent DMSO control was used as baseline. The Cell index was normalized against the cell index values at a time point just before compound addition.

10T1/2 tva = experiment: Impedance-based TCRP of control cell line 10T1/2 tva; set-up: species or system mouse; conditions: 10T1/2 tva control cell line; from 0 to 10 uM
Method: as §4, §6

BT20 = experiment: Impedance-based TCRP of BT20 cells (p110α P539R/H1047R) to PI3K inhibitor; assay type: cell-based; conditions: Homo sapiens, BT-20, 10 min
Method: as §1, §2, §3

T47D = experiment: Impedance-based TCRP of T47D cells (mutant p110α) to PI3K inhibitor; assay type: cell-based; conditions: Homo sapiens, 10 min
Method: as §1, §2, §3

RBL-2H3 PDGFRβ = experiment: Impedance response of engineered RBL-2H3 PDGFRβ cells to PDGF stimulation and PDGFR inhibition; assay type: cell-based, rat; conditions: serum starved 2 hour, peak normalized CI response
Method: RBL-2H3 PDGFRβ cells were seeded at 20,000 cells per well of 96-well E-plate (Roche/ACEA). The cells were continuously monitored using the xCelligence system (Roche/ACEA). […] The cell index (CI) was normalized at time of compound addition. Time zero depicts the time point of treatment. […] The cell index (CI) was normalized at time of compound addition. Time zero depicts the time point of treatment.

RBL-2H3 = experiment: Impedance response of parental RBL-2H3 cells; assay type: cell-based, rat; conditions: RBL-2H3 parental
Method: Cell lines. RBL2H3-PDGFR is engineered rat basophilic cell line that expresses exogenous PDGFRβ. RBL2H3 is the parental cell line.
RBL2H3-PDGFR overexpressing PDGFRβ was constructed by Lenti viral transduction of RBL2H3. Both RBL2H3-PDGFR and RBL2H3 cells were seeded at 20,000 cells per well of 96-well E-plate (Roche/ACEA). The cells were continuously monitored using the xCelligence system (Roche/ACEA).
Cells were serum starved for 2 hour, then stimulated by addition of PDGF BB (0-50 ng/ml). […] Plotting the peak normalized CI response versus the corresponding log concentration allows for calculation of the EC50 (1.07 ng.mL) of PDGF acting on PDGFR in the engineered cell line.
This dose-dependent decease in the CI is specific to PDGFR inhibition.

COc1cc2ncnc(Nc3ccc(F)c(Cl)c3)c2cc1OCCCN1CCOCC1 [Gefitinib]
TCRP (Cell Index response) (C6): did not affect CI changes that are significantly different from the negative control
TCRP (Cell Index response, cell growth) (Colo-205): did not inhibit Colo205 cell growth
TCRP (Cell Index response) (H1993): None of these inhibitors induced a TCRP similar to PF2341006
TCRP (Cell Index response) (SK-MEL-28): did not affect CI changes that are significantly different from the negative control
TCRP (Cell Index response) (SH-SY5Y): None trigged a TCRP representative to that trigger by ALK inhibitors

Oc1cccc(-c2nc(N3CCOCC3)c3oc4ncccc4c3n2)c1 [PI103]
PI3K downstream signal (AKT phosphorylation), Western (AKT phosphorylation): efficiently inhibited
TCRP (Cell Index response) (A549): did not show clear dose response
TCRP (Cell Index response) (10T1/2 tva-H1047R; 10T1/2 tva-H1047R in the presence of siRNA targeting human p110α, within 10 min of compound addition): no sharp decrease
TCRP (Cell Index response) (10T1/2 tva-H1047R; 10T1/2 tva-H1047R, serum starved, from 0 to 10 uM): immediate decrease
IC50 (10T1/2 tva-H1047R; Mus musculus, 5 h, read-out: IC50 (TCRP)): 0.089 µM
TCRP (Cell Index response) (10T1/2 tva): did not show a clear dose response
IC50 (BT20): 0.165 µM
IC50 (T47D): 0.126 µM

PDGF: PDGF BB, ligand used to stimulate PDGFRβ
EC50 of PDGF acting on PDGFR (RBL-2H3 PDGFRβ): 1.07 ng·mL
Cell Index response of parental cell line (RBL-2H3): did not show any response
